Like-named read-outs stand apart in the source and are kept apart here.
Legend:
SIRT1 [1] = target: T1, SIRT1 (Homo sapiens, UniProt Q96EB6); assay: sirtuin deacetylase inhibition assay, % inhibition at […] ([…] at […]); format: biochemical
T1 sequence (Q96EB6 2-747): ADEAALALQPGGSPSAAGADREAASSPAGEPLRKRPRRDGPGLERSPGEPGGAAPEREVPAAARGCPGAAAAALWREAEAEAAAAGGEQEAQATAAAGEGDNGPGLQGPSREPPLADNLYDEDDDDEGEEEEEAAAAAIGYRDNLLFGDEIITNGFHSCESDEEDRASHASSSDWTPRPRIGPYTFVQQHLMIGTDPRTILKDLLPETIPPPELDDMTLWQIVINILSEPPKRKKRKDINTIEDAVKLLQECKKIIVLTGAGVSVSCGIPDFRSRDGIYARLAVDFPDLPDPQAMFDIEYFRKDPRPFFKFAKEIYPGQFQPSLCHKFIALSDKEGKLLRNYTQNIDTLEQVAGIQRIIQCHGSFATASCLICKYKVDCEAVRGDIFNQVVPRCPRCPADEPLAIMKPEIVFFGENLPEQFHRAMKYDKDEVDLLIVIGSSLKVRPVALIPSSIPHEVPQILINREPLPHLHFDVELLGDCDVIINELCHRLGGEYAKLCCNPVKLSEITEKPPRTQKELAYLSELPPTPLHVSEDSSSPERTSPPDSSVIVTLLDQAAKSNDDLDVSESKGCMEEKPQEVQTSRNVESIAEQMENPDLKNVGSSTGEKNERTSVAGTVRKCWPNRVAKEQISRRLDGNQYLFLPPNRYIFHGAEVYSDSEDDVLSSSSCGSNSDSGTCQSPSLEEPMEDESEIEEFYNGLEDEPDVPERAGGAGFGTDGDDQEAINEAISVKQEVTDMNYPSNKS

SIRT2 [2] = target: T2, SIRT2 (Homo sapiens, UniProt Q8IXJ6); assay: as above; format: biochemical
T2 sequence (Q8IXJ6 2-389): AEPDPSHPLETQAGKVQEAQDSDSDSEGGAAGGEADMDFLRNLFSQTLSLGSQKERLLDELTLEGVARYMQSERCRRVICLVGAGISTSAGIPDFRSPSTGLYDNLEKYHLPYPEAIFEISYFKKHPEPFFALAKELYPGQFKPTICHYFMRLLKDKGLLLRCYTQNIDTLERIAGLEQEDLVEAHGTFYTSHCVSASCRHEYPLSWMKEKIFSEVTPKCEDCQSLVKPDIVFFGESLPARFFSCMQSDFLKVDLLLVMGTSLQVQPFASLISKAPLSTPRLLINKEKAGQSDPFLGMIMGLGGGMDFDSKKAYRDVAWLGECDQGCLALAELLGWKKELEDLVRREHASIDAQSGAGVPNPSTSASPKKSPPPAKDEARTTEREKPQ

SIRT2 [3] = target: T2, SIRT2; assay: as above; format: biochemical; remark: listed apart in the source
SIRT1 [4] = target: T1, SIRT1; assay: as above; format: biochemical; remark: listed apart in the source
HT29 = assay: cells; set-up: species or system NCI-60 human tumour cell lines; NCI-60 one-dose screen at 10 uM, percent growth inhibition versus untreated control cells; details: Homo sapiens, HT-29, growth inhibition, one dose

**Q.** How did the inhibition at 50 µM (SIRT1 [1]) turn out when CN(C)c1ccc(C=NNC(=O)/C=C/C=C/c2ccc3c(c2)OCO3)cc1 (mixture of isomers) [5d, (2E,4E)-5-(Benzo[d][1,3]dioxol-5-yl)-N′-((E/Z)-4-(dimethylamino)-benzylidene)penta-2,4-dienehydrazide] was run?
**A.** The inhibition at 50 µM was 48 ± 3%.

**Q.** And the inhibition at 50 µM (SIRT2 [2])?
**A.** Its inhibition at 50 µM is 70 ± 3%.

**Q.** How did the inhibition at 50 µM (SIRT2 [3]) turn out when O=C(/C=C/C=C/c1ccc2c(c1)OCO2)NN=Cc1ccc(O)cc1 [5a, (2E,4E)-5-(Benzo[d][1,3]dioxol-5-yl)-N′-((E,Z)-4-hydroxybenzylidene)penta-2,4-dienehydrazide] was run?
**A.** Its inhibition at 50 µM is 72 ± 3%.

**Q.** With O=C(/C=C/C=C/c1ccc2c(c1)OCO2)N/N=C/c1ccc(O)cc1O [5b, (2E,4E)-5-(Benzo[d][1,3]dioxol-5-yl)-N′-((E)-2,4-dihydroxybenzylidene)penta-2,4-dienehydrazide] as the molecule, how does the inhibition at 50 µM (SIRT1 [4]) read?
**A.** The inhibition at 50 µM was 45 ± 3%.

**Q.** What about the inhibition at 10 µM (HT29; read-out: Growth% inhibition / 5b) of the same molecule?
**A.** Its inhibition at 10 µM is 51.9%.

**Q.** How did the inhibition at 10 µM (HT29; read-out: Growth% inhibition / 5e) turn out when CCN(CC)c1ccc(/C=N/NC(=O)/C=C/C=C/c2ccc3c(c2)OCO3)c(O)c1 [5e, (2E,4E)-5-(Benzo[d][1,3]dioxol-5-yl)-N′-((E)-4-(diethylamino)-2-hydroxybenzylidene)penta-2,4-dienehydrazide] was run?
**A.** Its inhibition at 10 µM is 32.2%.

— paper PMC9037111, “Structure-based design, synthesis, and biological evaluation of novel piperine–resveratrol hybrids as antiproliferative agents targeting SIRT-2” (RSC Advances, 2021)
